The values that follow come from PubChem BioAssay (NCI).

Holding throughout (experiment): NCI tumour cell line growth inhibition, 48 h
The subject of test [1] is ACHN renal.
Test [2] relates to CCRF-CEM leukemia.
The subject of test [3] is HL-60(TB) leukemia.
The test system of test [4] is HOP-92 NSCLC.
For test [5], the system named is HT29 colon.
Test [6] has as its system IGROV1 ovarian.
For test [7], the system named is NCI-H23 lung.
Test [8] relates to NCI-H460 lung.
The subject of test [9] is NCI-H522 lung.
Test [10] concerns OVCAR-5 ovarian.
Test [11] concerns SF-295 CNS.
The subject of test [12] is SF-539 CNS.
Test [13] concerns SK-MEL-28 melanoma.
The test system of test [14] is SN12C renal.
The subject of test [15] is T-47D breast.
In test [16] the test system is U251 CNS.
The subject of test [17] is UACC-257 melanoma.
For test [18], the system named is UO-31 renal.
The test system of test [19] is RXF 393 renal.

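Five compound concentrations were applied to cells in 96-well plates for 48 hours; endpoints were derived by simple linear interpolation of the resulting dose-response curve. TGI is the concentration that stops growth completely.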

With `Cc1ccc(SCC(OCn2cnc3c(N)ncnc32)[C@H](C)F)cc1` (some centres undefined), the TGI in [1], in [2], in test [3], in [4], in test [5] and in test [6] was above 100 µM each time. The TGI in test [7], in test [8], in test [9], in test [10], in test [11] and in test [12] was above 100 µM throughout. Also, the TGI in test [13], in test [14], in test [15], in [16], in test [17] and in test [18] was above 100 µM each time.

Take `CCCSc1cc(Cl)c(C)cc1S(=O)(=O)n1cc[nH]c1=O`: the TGI in [1], in test [2], in [5], in test [6], in [7] and in test [8] was above 100 µM in each case. Besides, the TGI in [9], in test [10], in [19], in test [11], in test [12] and in test [13] was above 100 µM throughout. For the same molecule, the TGI in [14], in test [15], in [16], in [17] and in test [18] was above 100 µM throughout.

In the case of `COc1ccc(-c2oc3c(CC(=O)O)cccc3c(=O)c2OC)cc1`, the TGI in [1], in test [2], in test [3], in test [5], in test [6] and in test [7] was above 100 µM each time. Also, the TGI in test [9], in [10], in test [19], in test [11], in test [12] and in test [14] was above 100 µM each time. Also, the TGI in test [15] is above 100 µM; in test [16], above 100 µM; in test [17], above 100 µM; in test [18] it was 53.4 µM.

For `CCOC(=O)Cc1ccc(Nc2nc3cc(C(F)(F)F)ccc3nc2C(=O)OCC)cc1`, the TGI in test [1], in test [3], in test [4], in test [5], in test [6] and in [7] was above 100 µM each time. Besides, the TGI in test [8] is above 100 µM; in test [9], above 100 µM; in test [10], above 100 µM; in test [19], 51.5 µM; in test [11], above 100 µM; in test [12], 55.3 µM. Besides, the TGI in [13], in test [14], in [15], in test [16], in [17] and in test [18] was above 100 µM each time.

Turning to `CC12CN(CC[N+](C)(C)C)CC1(C)C1CCC2O1` (centres undefined), the TGI in test [1], in test [2], in test [4], in test [5], in test [6] and in test [7] was above 100 µM throughout. Moreover, the TGI in test [8], in [9], in test [10], in test [19], in test [11] and in test [12] was above 100 µM in each case. Moreover, the TGI in test [13], in test [14], in [15], in test [16], in test [17] and in [18] was above 100 µM each time.

Turning to `Cc1nnc(Nc2ccc(Cl)cc2)o1`, the TGI in test [1], in test [2], in test [3], in [5], in test [6] and in test [7] was above 10 µM each time. For the same molecule, the TGI in test [8], in [9], in test [19], in test [11], in test [12] and in test [13] was above 10 µM each time. For the same molecule, the TGI in test [14], in [15], in [16], in test [17] and in test [18] was above 10 µM in each case.

For the molecule `NC(=S)SCCC(=O)O`, the TGI in test [1], in test [2], in [3], in test [4], in test [5] and in test [6] was above 100 µM in each case. For the same molecule, the TGI in [7], in test [8], in [9], in test [10], in [11] and in [12] was above 100 µM throughout. Moreover, the TGI in test [13], in test [14], in [15], in [16], in [17] and in test [18] was above 100 µM throughout.

Take `CNC(=O)Nc1cc2c3c(c1)CCCN3CCC2`: the TGI in [1], in test [2], in test [4], in test [5], in test [6] and in test [7] was above 10 µM each time. Moreover, the TGI in [8], in test [9], in test [10], in test [19], in test [11] and in test [12] was above 10 µM in each case. The TGI in test [13], in test [14], in test [15], in test [16] and in test [17] was above 10 µM in each case.
